This passage reports TGI results from PubChem BioAssay (NCI).

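Grown in 96-well plates, cells were treated for 48 hours with each compound at five concentrations. Insufficient inhibition: endpoint recorded as highest concentration tested. The concentration for full growth arrest is given as TGI.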

One assay deals with MALME-3M melanoma. Kind of assay: NCI tumour cell line growth inhibition, 48 h.
Regarding `COC(=O)c1c(C#N)[nH]c(-c2ccsc2)c1C(=O)OC`, the TGI is more than 100 µM.

For the compound `CC(=O)O[C@H]1CCC2[C@@H]3CCC4Nc5oncc5C[C@]4(C)C3CC[C@@]21C` (stereo partly drawn), the TGI is more than 10 µM.

For the compound `Cc1c(O)c(OC2OC(CO)C(O)C(O)C2O)cc2c1CC[C@@H]1C2(C)C(=O)C[C@]2(C)[C@@H]([C@@](C)(O)C(=O)CCC(C)(C)O)[C@H](O)C[C@@]12C` (stereo partly drawn), the TGI was more than 100 µM.

For the compound `Cc1cn(C2CC(O)C(CO[Si](C)(C)C(C)(C)C)OC2OC(C)C)c(=O)[nH]c1=O` (stereo not drawn), the TGI is more than 100 µM.

The compound `O=c1oc2ccccc2cc1-c1cn2ccccc2n1` showed a TGI of 14.7 µM.

`COC(=O)[C@H](Cc1c[nH]c2ccccc12)NC(=O)c1ccc(CNC(=O)/C(C)=C/c2ccccc2)cc1` registered a TGI of 25.6 µM.

A further assay has as its system NCI-H522 lung. Kind of assay: NCI tumour cell line growth inhibition, 48 h.
As for `Cc1nn(C(=O)Cc2ccccc2)c2c1C(c1ccc(Cl)cc1)SC(N)=N2` (stereo not drawn), the TGI was more than 100 µM.

As to `CCOC(=O)/C=C/[C@H](O[Si](CC)(CC)CC)C(C)(C)C`, the TGI is more than 100 µM.

The compound `CC(C)N(C(=O)C1(O)c2ccccc2C=Cc2ccccc21)C(C)C` displayed a TGI of 25.3 µM.

`CCCCCC(=O)CCCCCCCC(O)CC(=O)OCC` (stereo not drawn) registered a TGI of more than 100 µM.

In turn, `CCCCSC1=N/C(=C\c2ccco2)C(Cl)=N1` registered a TGI of more than 100 µM.

The compound `CC(=O)O[C@H]1CC[C@@]2(C)C(=CC[C@@H]3[C@@H]2CC[C@]2(C)NC(=O)/C(=C\c4ccccc4)C[C@@H]32)C1` yielded a TGI of 31.7 µM.

The compound `O=C(CCc1cc(O)ccc1O)OCCc1ccccc1` displayed a TGI of 1.78 µM.

For `O=C(N[C@@H](c1ccccc1)[C@@H](O)C(=O)OCc1ccc([N+](=O)[O-])cc1)c1ccccc1`, the TGI was more than 100 µM.

The compound `COC(=O)c1c(C#N)[nH]c(-c2ccsc2)c1C(=O)OC` displayed a TGI of more than 100 µM.

`Cc1c(O)c(OC2OC(CO)C(O)C(O)C2O)cc2c1CC[C@@H]1C2(C)C(=O)C[C@]2(C)[C@@H]([C@@](C)(O)C(=O)CCC(C)(C)O)[C@H](O)C[C@@]12C` (stereo partly drawn) returned a TGI of more than 100 µM.

`Cc1cn(C2CC(O)C(CO[Si](C)(C)C(C)(C)C)OC2OC(C)C)c(=O)[nH]c1=O` (stereo not drawn) returned a TGI of 89 µM.

`O=c1oc2ccccc2cc1-c1cn2ccccc2n1` showed a TGI of 17.3 µM.

In the case of `COC(=O)[C@H](Cc1c[nH]c2ccccc12)NC(=O)c1ccc(CNC(=O)/C(C)=C/c2ccccc2)cc1`, the TGI came to 62.8 µM.

The subject of another assay is OVCAR-3 ovarian. Kind of assay: NCI tumour cell line growth inhibition, 48 h.
As for `C#CC(C)(C)OC(=O)C(=[N+]=[N-])C(C)=O`, the TGI was more than 10 µM.

In the case of `CCOC(=O)/C=C/[C@H](O[Si](CC)(CC)CC)C(C)(C)C`, the TGI is more than 100 µM.

`CC(C)N(C(=O)C1(O)c2ccccc2C=Cc2ccccc21)C(C)C` registered a TGI of 31.3 µM.

In turn, `COc1ccc2c(c1)nc1n2C(c2c(Cl)cccc2Cl)SC1` (stereo not drawn) had a TGI of more than 93 µM.

On to `CCCCCC(=O)CCCCCCCC(O)CC(=O)OCC` (stereo not drawn), for which the TGI was more than 100 µM.

`CCCCSC1=N/C(=C\c2ccco2)C(Cl)=N1` had a TGI of more than 100 µM.

Compound `CC(=O)O[C@H]1CC[C@@]2(C)C(=CC[C@@H]3[C@@H]2CC[C@]2(C)NC(=O)/C(=C\c4ccccc4)C[C@@H]32)C1` came in with a TGI of 28.9 µM.

Turning to `O=C(N[C@@H](c1ccccc1)[C@@H](O)C(=O)OCc1ccc([N+](=O)[O-])cc1)c1ccccc1`, the TGI is more than 100 µM.

`COC(=O)c1c(C#N)[nH]c(-c2ccsc2)c1C(=O)OC` showed a TGI of more than 100 µM.

`CC(=O)O[C@H]1CCC2[C@@H]3CCC4Nc5oncc5C[C@]4(C)C3CC[C@@]21C` (stereo partly drawn) displayed a TGI of more than 10 µM.

Regarding `Cc1c(O)c(OC2OC(CO)C(O)C(O)C2O)cc2c1CC[C@@H]1C2(C)C(=O)C[C@]2(C)[C@@H]([C@@](C)(O)C(=O)CCC(C)(C)O)[C@H](O)C[C@@]12C` (stereo partly drawn), the TGI is more than 100 µM.

Consider `Cc1cn(C2CC(O)C(CO[Si](C)(C)C(C)(C)C)OC2OC(C)C)c(=O)[nH]c1=O` (stereo not drawn), for which the TGI amounted to 46.3 µM.

Consider `O=c1oc2ccccc2cc1-c1cn2ccccc2n1`, for which the TGI worked out at 14.3 µM.

`COC(=O)[C@H](Cc1c[nH]c2ccccc12)NC(=O)c1ccc(CNC(=O)/C(C)=C/c2ccccc2)cc1` had a TGI of more than 100 µM.

A further assay relates to OVCAR-4 ovarian. Kind of assay: NCI tumour cell line growth inhibition, 48 h.
`CCOC(=O)/C=C/[C@H](O[Si](CC)(CC)CC)C(C)(C)C` yielded a TGI of more than 100 µM.

For the compound `CC(C)N(C(=O)C1(O)c2ccccc2C=Cc2ccccc21)C(C)C`, the TGI is 52 µM.

In turn, `COc1ccc2c(c1)nc1n2C(c2c(Cl)cccc2Cl)SC1` (stereo not drawn) had a TGI of more than 100 µM.

Consider `CCCCSC1=N/C(=C\c2ccco2)C(Cl)=N1`, for which the TGI is more than 100 µM.

The compound `CC(=O)O[C@H]1CC[C@@]2(C)C(=CC[C@@H]3[C@@H]2CC[C@]2(C)NC(=O)/C(=C\c4ccccc4)C[C@@H]32)C1` came in with a TGI of 43.8 µM.

As to `O=C(CCc1cc(O)ccc1O)OCCc1ccccc1`, the TGI came out at 32.5 µM.

In turn, `O=C(N[C@@H](c1ccccc1)[C@@H](O)C(=O)OCc1ccc([N+](=O)[O-])cc1)c1ccccc1` had a TGI of more than 100 µM.

The compound `CC(=O)O[C@H]1CCC2[C@@H]3CCC4Nc5oncc5C[C@]4(C)C3CC[C@@]21C` (stereo partly drawn) gave a TGI of more than 10 µM.

On to `Cc1c(O)c(OC2OC(CO)C(O)C(O)C2O)cc2c1CC[C@@H]1C2(C)C(=O)C[C@]2(C)[C@@H]([C@@](C)(O)C(=O)CCC(C)(C)O)[C@H](O)C[C@@]12C` (stereo partly drawn), for which the TGI was more than 100 µM.

`Cc1cn(C2CC(O)C(CO[Si](C)(C)C(C)(C)C)OC2OC(C)C)c(=O)[nH]c1=O` (stereo not drawn) returned a TGI of more than 100 µM.

Take `O=c1oc2ccccc2cc1-c1cn2ccccc2n1`: the TGI is more than 42.1 µM.

The compound `COC(=O)[C@H](Cc1c[nH]c2ccccc12)NC(=O)c1ccc(CNC(=O)/C(C)=C/c2ccccc2)cc1` had a TGI of more than 100 µM.

Another assay has as its system OVCAR-8 ovarian. Kind of assay: NCI tumour cell line growth inhibition, 48 h.
Compound `Cc1nn(C(=O)Cc2ccccc2)c2c1C(c1ccc(Cl)cc1)SC(N)=N2` (stereo not drawn) yielded a TGI of more than 100 µM.

`C#CC(C)(C)OC(=O)C(=[N+]=[N-])C(C)=O` returned a TGI of more than 10 µM.

For `CCOC(=O)/C=C/[C@H](O[Si](CC)(CC)CC)C(C)(C)C`, the TGI is more than 100 µM.

With `CC(C)N(C(=O)C1(O)c2ccccc2C=Cc2ccccc21)C(C)C`, the TGI came to 30.5 µM.

The compound `COc1ccc2c(c1)nc1n2C(c2c(Cl)cccc2Cl)SC1` (stereo not drawn) registered a TGI of more than 100 µM.

Take `CCCCCC(=O)CCCCCCCC(O)CC(=O)OCC` (stereo not drawn): the TGI is more than 100 µM.

Regarding `CCCCSC1=N/C(=C\c2ccco2)C(Cl)=N1`, the TGI was more than 100 µM.

The compound `CC(=O)O[C@H]1CC[C@@]2(C)C(=CC[C@@H]3[C@@H]2CC[C@]2(C)NC(=O)/C(=C\c4ccccc4)C[C@@H]32)C1` displayed a TGI of 45 µM.

Regarding `O=C(CCc1cc(O)ccc1O)OCCc1ccccc1`, the TGI was more than 57.6 µM.

Consider `O=C(N[C@@H](c1ccccc1)[C@@H](O)C(=O)OCc1ccc([N+](=O)[O-])cc1)c1ccccc1`, for which the TGI is more than 100 µM.

Consider `COC(=O)c1c(C#N)[nH]c(-c2ccsc2)c1C(=O)OC`, for which the TGI is more than 100 µM.

Compound `CC(=O)O[C@H]1CCC2[C@@H]3CCC4Nc5oncc5C[C@]4(C)C3CC[C@@]21C` (stereo partly drawn) displayed a TGI of more than 10 µM.

In turn, `Cc1c(O)c(OC2OC(CO)C(O)C(O)C2O)cc2c1CC[C@@H]1C2(C)C(=O)C[C@]2(C)[C@@H]([C@@](C)(O)C(=O)CCC(C)(C)O)[C@H](O)C[C@@]12C` (stereo partly drawn) came in with a TGI of more than 100 µM.

`Cc1cn(C2CC(O)C(CO[Si](C)(C)C(C)(C)C)OC2OC(C)C)c(=O)[nH]c1=O` (stereo not drawn): the TGI turned out to be 91.8 µM.

Take `O=c1oc2ccccc2cc1-c1cn2ccccc2n1`: the TGI is 10.7 µM.

Compound `COC(=O)[C@H](Cc1c[nH]c2ccccc12)NC(=O)c1ccc(CNC(=O)/C(C)=C/c2ccccc2)cc1` returned a TGI of more than 100 µM.

Another assay has as its system SF-295 CNS. Kind of assay: NCI tumour cell line growth inhibition, 48 h.
For `Cc1nn(C(=O)Cc2ccccc2)c2c1C(c1ccc(Cl)cc1)SC(N)=N2` (stereo not drawn), the TGI was more than 100 µM.

Regarding `C#CC(C)(C)OC(=O)C(=[N+]=[N-])C(C)=O`, the TGI was more than 10 µM.

The compound `CCOC(=O)/C=C/[C@H](O[Si](CC)(CC)CC)C(C)(C)C` had a TGI of more than 100 µM.

`CC(C)N(C(=O)C1(O)c2ccccc2C=Cc2ccccc21)C(C)C` showed a TGI of 33.7 µM.

For the compound `COc1ccc2c(c1)nc1n2C(c2c(Cl)cccc2Cl)SC1` (stereo not drawn), the TGI was more than 70.4 µM.

Consider `CCCCSC1=N/C(=C\c2ccco2)C(Cl)=N1`, for which the TGI is more than 100 µM.

The compound `CC(=O)O[C@H]1CC[C@@]2(C)C(=CC[C@@H]3[C@@H]2CC[C@]2(C)NC(=O)/C(=C\c4ccccc4)C[C@@H]32)C1` registered a TGI of 37.5 µM.
